System: MV-4-11 cells
Test: Gene expression microarray analysis (Affymetrix PrimeView) and GSEA
Format: cell-based, human
Parameters: RFU PODN (11730768_x_at) / Fold change /veh PODN (11730768_x_at) / RFU LINC00158 (11744669_a_at) / Fold change /veh LINC00158 (11744669_a_at) / RFU DUSP10 (11751237_a_at) / Fold change /veh DUSP10 (11751237_a_at) / RFU ID3 (11757404_x_at) / Fold change /veh ID3 (11757404_x_at) / RFU PLEKHG5 (11737974_s_at) / Fold change /veh PLEKHG5 (11737974_s_at) / RFU LRRC4B (11730491_at) / Fold change /veh LRRC4B (11730491_at) / RFU GIMAP4 (11747438_a_at) / Fold change /veh GIMAP4 (11747438_a_at) / RFU KRT8 (11758183_x_at) / Fold change /veh KRT8 (11758183_x_at) / RFU CNN1 (11734310_a_at) / Fold change /veh CNN1 (11734310_a_at) / RFU VPS37D (11726825_at) / Fold change /veh VPS37D (11726825_at) / RFU C10orf10 (11716522_x_at) / Fold change /veh C10orf10 (11716522_x_at) / RFU KIR2DL2 /// KIR2DL4 /// KIR2DL5A /// KIR2DL5B /// KIR2DS1 /// KIR2DS2 /// KIR2DS3 /// KIR2DS4 /// KIR3DL3 /// KIR3DL3 /// KIR3DS1 (11738374_at) / Fold change /veh KIR2DL2 /// KIR2DL4 /// KIR2DL5A /// KIR2DL5B /// KIR2DS1 /// KIR2DS2 /// KIR2DS3 /// KIR2DS4 /// KIR3DL3 /// KIR3DL3 /// KIR3DS1 (11738374_at) / RFU C1QL1 (11718748_at) / Fold change /veh C1QL1 (11718748_at) / RFU TMPRSS4 (11747572_a_at) / Fold change /veh TMPRSS4 (11747572_a_at) / RFU HAMP (11756126_x_at) / Fold change /veh HAMP (11756126_x_at) / RFU RNFT2 (11725882_a_at) / Fold change /veh RNFT2 (11725882_a_at) / RFU NR4A2 (11747474_a_at) / Fold change /veh NR4A2 (11747474_a_at) / RFU ABCC12 (11746883_a_at) / Fold change /veh ABCC12 (11746883_a_at) / RFU TMEM136 (11760407_x_at) / Fold change /veh TMEM136 (11760407_x_at) / RFU CLDN22 /// WWC2 (11732394_at) / Fold change /veh CLDN22 /// WWC2 (11732394_at) / RFU HLA-DPB1 (11760878_x_at) / Fold change /veh HLA-DPB1 (11760878_x_at) / RFU SPINT1 (11716480_a_at) / Fold change /veh SPINT1 (11716480_a_at) / RFU GAP43 (11754022_s_at) / Fold change /veh GAP43 (11754022_s_at) / RFU A4GNT (11735810_at) / Fold change /veh A4GNT (11735810_at) / RFU PRB3 (11715151_x_at) / Fold change /veh PRB3 (11715151_x_at) / RFU TUBB4B (11761932_at) / Fold change /veh TUBB4B (11761932_at) / RFU CAPN14 (11732068_a_at) / Fold change /veh CAPN14 (11732068_a_at) / RFU TMCC2 (11721928_a_at) / Fold change /veh TMCC2 (11721928_a_at) / RFU IRGQ (11745062_a_at) / Fold change /veh IRGQ (11745062_a_at) / RFU FAM174B (11720279_a_at) / Fold change /veh FAM174B (11720279_a_at) / RFU TMPRSS4 (11748680_a_at) / Fold change /veh TMPRSS4 (11748680_a_at) / RFU FAM212B (11763350_a_at) / Fold change /veh FAM212B (11763350_a_at) / RFU PLEKHG5 (11743358_a_at) / Fold change /veh PLEKHG5 (11743358_a_at) / RFU ZSCAN30 (11745921_a_at) / Fold change /veh ZSCAN30 (11745921_a_at) / RFU CMKLR1 (11741424_a_at) / Fold change /veh CMKLR1 (11741424_a_at) / RFU LOC101060620 /// MAPK8IP1 (11723275_at) / Fold change /veh LOC101060620 /// MAPK8IP1 (11723275_at) / RFU SPTSSB (11747773_x_at) / Fold change /veh SPTSSB (11747773_x_at) / RFU PRSS12 (11739890_at) / Fold change /veh PRSS12 (11739890_at) / RFU BIN1 (11741810_x_at) / Fold change /veh BIN1 (11741810_x_at) / RFU WNT11 (11732464_a_at) / Fold change /veh WNT11 (11732464_a_at) / RFU C10orf10 (11716521_a_at) / Fold change /veh C10orf10 (11716521_a_at) / RFU C5orf56 (11738089_at) / Fold change /veh C5orf56 (11738089_at) / RFU CYB561 (11721691_x_at) / Fold change /veh CYB561 (11721691_x_at) / RFU ANKRD19P (11752326_a_at) / Fold change /veh ANKRD19P (11752326_a_at) / RFU OR2T12 /// OR2T33 /// OR2T8 (11738714_s_at) / Fold change /veh OR2T12 /// OR2T33 /// OR2T8 (11738714_s_at) / RFU VCAN (11748164_a_at) / Fold change /veh VCAN (11748164_a_at) / RFU JSRP1 (11732532_at) / Fold change /veh JSRP1 (11732532_at) / RFU KRTAP10-11 (11738290_x_at) / Fold change /veh KRTAP10-11 (11738290_x_at) / RFU MYO3A (11730013_a_at) / Fold change /veh MYO3A (11730013_a_at) / RFU EBF3 (11725865_a_at) / Fold change /veh EBF3 (11725865_a_at) / RFU CAMK2N1 (11719241_x_at) / Fold change /veh CAMK2N1 (11719241_x_at) / RFU C5orf56 (11738088_a_at) / Fold change /veh C5orf56 (11738088_a_at) / RFU OLFML3 (11715873_a_at) / Fold change /veh OLFML3 (11715873_a_at) / RFU LOC100653217 /// NTM (11731650_a_at) / Fold change /veh LOC100653217 /// NTM (11731650_a_at) / RFU MAPK11 (11762145_a_at) / Fold change /veh MAPK11 (11762145_a_at) / RFU FIZ1 (11724087_x_at) / Fold change /veh FIZ1 (11724087_x_at) / RFU OASL (11726364_x_at) / Fold change /veh OASL (11726364_x_at) / RFU SOX15 (11748057_x_at) / Fold change /veh SOX15 (11748057_x_at) / RFU CD79A (11719716_a_at) / Fold change /veh CD79A (11719716_a_at) / RFU HIST1H1D (11736915_at) / Fold change /veh HIST1H1D (11736915_at) / RFU CASKIN2 (11723855_a_at) / Fold change /veh CASKIN2 (11723855_a_at) / RFU LOC730098 (11760151_x_at) / Fold change /veh LOC730098 (11760151_x_at) / RFU OR4N2 (11742367_at) / Fold change /veh OR4N2 (11742367_at) / RFU PRRT2 (11749266_a_at) / Fold change /veh PRRT2 (11749266_a_at) / RFU SNX32 (11753110_a_at) / Fold change /veh SNX32 (11753110_a_at) / RFU CDHR5 (11726645_a_at) / Fold change /veh CDHR5 (11726645_a_at) / RFU RCAN1 (11760418_a_at) / Fold change /veh RCAN1 (11760418_a_at) / RFU FAM167A (11723789_a_at) / Fold change /veh FAM167A (11723789_a_at) / RFU FAM26E (11764081_at) / Fold change /veh FAM26E (11764081_at) / RFU ISYNA1 (11749810_s_at) / Fold change /veh ISYNA1 (11749810_s_at) / RFU ACY1 (11761880_at) / Fold change /veh ACY1 (11761880_at) / RFU 11764098_at / Fold change /veh 11764098_at / RFU SAMD14 (11745864_x_at) / Fold change /veh SAMD14 (11745864_x_at) / RFU NPB (11741838_a_at) / Fold change /veh NPB (11741838_a_at) / RFU TMPRSS6 (11731388_a_at) / Fold change /veh TMPRSS6 (11731388_a_at) / RFU KRTAP10-2 (11738614_at) / Fold change /veh KRTAP10-2 (11738614_at) / RFU ARHGAP8 /// PRR5-ARHGAP8 (11727945_x_at) / Fold change /veh ARHGAP8 /// PRR5-ARHGAP8 (11727945_x_at) / RFU KRTAP5-7 /// NADSYN1 (11734609_at) / Fold change /veh KRTAP5-7 /// NADSYN1 (11734609_at) / RFU RASL12 (11751679_a_at) / Fold change /veh RASL12 (11751679_a_at) / RFU CDKN2B (11736163_a_at) / Fold change /veh CDKN2B (11736163_a_at) / RFU PRF1 (11729649_at) / Fold change /veh PRF1 (11729649_at) / RFU, ZNF638 /// ZNF638-IT1 / Fold change vs veh, ZNF638 /// ZNF638-IT1 / RFU, PANK3 / Fold change vs veh, PANK3 / RFU, SH3YL1 / Fold change vs veh, SH3YL1 / RFU, ZEB2 / Fold change vs veh, ZEB2 / RFU, NRIP1 / Fold change vs veh, NRIP1 / RFU, PTTG1IP / Fold change vs veh, PTTG1IP / RFU, CAPN2 / Fold change vs veh, CAPN2 / RFU, MED14 / Fold change vs veh, MED14 / RFU, SNORA58 / Fold change vs veh, SNORA58 / RFU, C1orf63 / Fold change vs veh, C1orf63 / RFU, LRRFIP1 / Fold change vs veh, LRRFIP1 / RFU, NDUFAF7 / Fold change vs veh, NDUFAF7 / RFU, SLC12A2 / Fold change vs veh, SLC12A2 / RFU, IBTK / Fold change vs veh, IBTK / RFU, ESF1 / Fold change vs veh, ESF1 / Fold change vs veh, TMEM50B / RFU, TAOK1 / Fold change vs veh, TAOK1 / RFU, ACBD3 / Fold change vs veh, ACBD3 / RFU, TMA16 / Fold change vs veh, TMA16 / RFU, RWDD3 / Fold change vs veh, RWDD3 / RFU, BCAT1 / Fold change vs veh, BCAT1 / RFU, EDEM3 / Fold change vs veh, EDEM3 / RFU, TMEM33 / Fold change vs veh, TMEM33 / RFU, WDR75 / Fold change vs veh, WDR75 / RFU, AHCTF1 / Fold change vs veh, AHCTF1 / RFU, TFRC / Fold change vs veh, TFRC / RFU, ZDHHC17 / Fold change vs veh, ZDHHC17 / RFU, NOM1 / Fold change vs veh, NOM1 / RFU, ARL8B / Fold change vs veh, ARL8B / RFU, ZBTB11 / Fold change vs veh, ZBTB11 / RFU, TAMM41 / Fold change vs veh, TAMM41 / RFU, KIAA1704 /// LOC100996395 / Fold change vs veh, KIAA1704 /// LOC100996395 / RFU, ING1 / Fold change vs veh, ING1 / RFU, TRMT61B / Fold change vs veh, TRMT61B / RFU, FUBP3 / Fold change vs veh, FUBP3 / RFU, TP53 / Fold change vs veh, TP53 / RFU, TNKS2 / Fold change vs veh, TNKS2 / RFU, ZFP14 / Fold change vs veh, ZFP14 / RFU, ACTR2 / Fold change vs veh, ACTR2 / RFU, PPP3R1 / Fold change vs veh, PPP3R1 / RFU, PIK3R1 / Fold change vs veh, PIK3R1 / RFU, HNRNPA1 / Fold change vs veh, HNRNPA1 / RFU, RNF170 / Fold change vs veh, RNF170 / RFU, ZNF28 / Fold change vs veh, ZNF28 / RFU, RNGTT / Fold change vs veh, RNGTT / RFU, OGT / Fold change vs veh, OGT / RFU, BRD1 / Fold change vs veh, BRD1 / RFU, MARS / Fold change vs veh, MARS / RFU, ZNF655 / Fold change vs veh, ZNF655 / RFU, FAHD1 / Fold change vs veh, FAHD1 / RFU, BDP1 / Fold change vs veh, BDP1 / RFU, LRRCC1 / Fold change vs veh, LRRCC1 / RFU, ARID1A / Fold change vs veh, ARID1A / RFU, ZNF146 / Fold change vs veh, ZNF146 / RFU, ZNF330 / Fold change vs veh, ZNF330 / RFU, GPN3 / Fold change vs veh, GPN3 / RFU, C9orf123 / Fold change vs veh, C9orf123 / RFU, N4BP2L2 / Fold change vs veh, N4BP2L2 / RFU, ARFIP1 / Fold change vs veh, ARFIP1 / RFU, FAM179B / Fold change vs veh, FAM179B / RFU, BCL10 / Fold change vs veh, BCL10 / RFU, UHRF1BP1L / Fold change vs veh, UHRF1BP1L / RFU, BET1 / Fold change vs veh, BET1 / RFU, CNOT2 / Fold change vs veh, CNOT2 / RFU, ZNF268 / Fold change vs veh, ZNF268 / Fold change vs veh, ZNF507 / RFU, DGCR2 / Fold change vs veh, DGCR2 / RFU, WDSUB1 / Fold change vs veh, WDSUB1 / Fold change vs veh, HSP90B1 /// MIR3652 / RFU, ADSS / Fold change vs veh, ADSS / RFU, GK / Fold change vs veh, GK / RFU, ZNF148 / Fold change vs veh, ZNF148 / RFU, TAF9 / Fold change vs veh, TAF9 / RFU, SLC1A5 / Fold change vs veh, SLC1A5 / RFU, SLMO2 / Fold change vs veh, SLMO2 / RFU, ABCC4 / Fold change vs veh, ABCC4 / RFU, LOC101060439 /// RAP1B / Fold change vs veh, LOC101060439 /// RAP1B / RFU, RFX7 / Fold change vs veh, RFX7 / RFU, GTPBP10 / Fold change vs veh, GTPBP10 / RFU, CNEP1R1 / Fold change vs veh, CNEP1R1 / RFU, BIVM-ERCC5 /// ERCC5 / Fold change vs veh, BIVM-ERCC5 /// ERCC5 / RFU, ILF3 / Fold change vs veh, ILF3 / RFU 11762660_at / Fold change /veh 11762660_at / RFU VCAN (11757783_s_at) / Fold change /veh VCAN (11757783_s_at) / RFU DDX43 (11728927_at) / Fold change /veh DDX43 (11728927_at) / RFU KRT8 (11758188_x_at) / Fold change /veh KRT8 (11758188_x_at) / RFU NKD1 (11759106_at) / Fold change /veh NKD1 (11759106_at) / RFU SRD5A1 (11742802_a_at) / Fold change /veh SRD5A1 (11742802_a_at) / RFU TPSAB1 /// TPSB2 (11721975_s_at) / Fold change /veh TPSAB1 /// TPSB2 (11721975_s_at) / RFU GSTM3 (11746129_a_at) / Fold change /veh GSTM3 (11746129_a_at) / RFU IL23R (11737362_x_at) / Fold change /veh IL23R (11737362_x_at) / RFU TMEM51 (11727254_a_at) / Fold change /veh TMEM51 (11727254_a_at) / RFU PIWIL2 (11732686_x_at) / Fold change /veh PIWIL2 (11732686_x_at) / RFU ORM1 (11744905_x_at) / Fold change /veh ORM1 (11744905_x_at) / RFU CCDC152 (11743942_at) / Fold change /veh CCDC152 (11743942_at) / RFU ECM1 (11717891_a_at) / Fold change /veh ECM1 (11717891_a_at) / RFU IL23R (11748794_a_at) / Fold change /veh IL23R (11748794_a_at) / RFU TNFAIP8L3 (11732012_x_at) / Fold change /veh TNFAIP8L3 (11732012_x_at) / RFU MBOAT4 (11741988_at) / Fold change /veh MBOAT4 (11741988_at) / RFU 11764193_at / Fold change /veh 11764193_at / RFU TMEM53 (11763286_at) / Fold change /veh TMEM53 (11763286_at) / RFU MAGEB2 (11727129_at) / Fold change /veh MAGEB2 (11727129_at) / RFU TMEM200A (11744735_a_at) / Fold change /veh TMEM200A (11744735_a_at) / RFU CCDC152 (11751479_a_at) / Fold change /veh CCDC152 (11751479_a_at) / RFU FAM211A (11726209_a_at) / Fold change /veh FAM211A (11726209_a_at) / RFU RGS16 (11746705_a_at) / Fold change /veh RGS16 (11746705_a_at) / RFU VCAN (11755009_s_at) / Fold change /veh VCAN (11755009_s_at) / RFU RHOB (11743442_s_at) / Fold change /veh RHOB (11743442_s_at) / RFU RGS16 (11720943_a_at) / Fold change /veh RGS16 (11720943_a_at) / RFU RGS16 (11720944_at) / Fold change /veh RGS16 (11720944_at) / RFU, VPS4B / Fold change vs veh, VPS4B / RFU, CREB1 / Fold change vs veh, CREB1 / RFU, DNAJC13 / Fold change vs veh, DNAJC13 / RFU, GNAQ / Fold change vs veh, GNAQ / RFU, CDK5R1 / Fold change vs veh, CDK5R1 / RFU, ZRANB3 / Fold change vs veh, ZRANB3 / RFU, CUL4A / Fold change vs veh, CUL4A / RFU, CCNY / Fold change vs veh, CCNY / RFU, UFL1 / Fold change vs veh, UFL1 / RFU, COG3 / Fold change vs veh, COG3 / RFU, DIAPH2 / Fold change vs veh, DIAPH2 / RFU, SKA2 / Fold change vs veh, SKA2 / RFU, AFF3 / Fold change vs veh, AFF3 / RFU, LMF1 / Fold change vs veh, LMF1 / RFU, IPO11 / Fold change vs veh, IPO11 / RFU, DFFB / Fold change vs veh, DFFB / RFU, FOXP1 / Fold change vs veh, FOXP1 / RFU, CARD8 / Fold change vs veh, CARD8 / RFU, STRN3 / Fold change vs veh, STRN3 / RFU, ADK / Fold change vs veh, ADK / RFU, RASSF2 / Fold change vs veh, RASSF2 / RFU, WIPF1 / Fold change vs veh, WIPF1 / RFU, LARP1B / Fold change vs veh, LARP1B / RFU, RASA1 / Fold change vs veh, RASA1 / RFU, RB1 / Fold change vs veh, RB1 / RFU, PPFIA1 / Fold change vs veh, PPFIA1 / RFU, MAT2A / Fold change vs veh, MAT2A / RFU, CCT5 / Fold change vs veh, CCT5 / RFU, WDR92 / Fold change vs veh, WDR92 / RFU, CUX1 / Fold change vs veh, CUX1 / RFU, TTC7A / Fold change vs veh, TTC7A / RFU, TMEM135 / Fold change vs veh, TMEM135 / RFU, DEPTOR / Fold change vs veh, DEPTOR / RFU, CPM / Fold change vs veh, CPM / RFU, DNAJB6 / Fold change vs veh, DNAJB6 / RFU, CACNA2D3 / Fold change vs veh, CACNA2D3 / RFU, DTX4 / Fold change vs veh, DTX4 / RFU, TFCP2 / Fold change vs veh, TFCP2 / RFU, GMCL1 /// GMCL1P1 / Fold change vs veh, GMCL1 /// GMCL1P1 / RFU, AEBP2 / Fold change vs veh, AEBP2 / RFU, SNHG1 /// SNORD22 /// SNORD25 /// SNORD26 /// SNORD27 /// SNORD28 /// SNORD29 /// SNORD31 / Fold change vs veh, SNHG1 /// SNORD22 /// SNORD25 /// SNORD26 /// SNORD27 /// SNORD28 /// SNORD29 /// SNORD31 / Fold change (Aza/veh), C12orf56 (ProbeSet 11735607_a_at) / Fold change (ACY-1035/veh), C12orf56 (ProbeSet 11735607_a_at) / Fold change (Aza/veh), FGFR1OP (ProbeSet 11751329_s_at) / Fold change (ACY-1035/veh), FGFR1OP (ProbeSet 11751329_s_at) / Fold change (Aza/veh), VPS36 (ProbeSet 11739960_a_at) / Fold change (ACY-1035/veh), VPS36 (ProbeSet 11739960_a_at) / RFU SYPL1 (11715823_x_at) / Fold change /veh SYPL1 (11715823_x_at) / RFU IGFBP7 (11715501_s_at) / Fold change /veh IGFBP7 (11715501_s_at) / RFU REEP3 (11722064_at) / Fold change /veh REEP3 (11722064_at) / RFU IGLL1 (11728026_x_at) / Fold change /veh IGLL1 (11728026_x_at): dose or concentration left out as unconfirmed
Settings: ProbeSet 11754607_s_at; LIST B

Nc1ccc(-c2cccs2)cc1NC(=O)c1ccc2c(c1)cc(C1CC1)n2CCN1CCOCC1 [ACY-1035]
Fold change vs veh, HSP90B1 /// MIR3652: 0.87
